Assays:
[1] = target: T1, Ba/F3-TEL-SYK cells (Homo sapiens, UniProt P43405); experiment: Ba/F3-TEL-SYK cell-based assay (CellTiter-Glo proliferation); conditions: 72 hr, read-out: BaF3 Cell assay IC50
T1 construct: fused on or other part: N-terminal part of TEL (ETV6) with its oligomerising PNT/SAM domain, fused before the SYK part that carries the kinase domain; P41212 (Transcription factor ETV6)
Protocol: CellTiter-Glo® Luminescent Cell Viability Assay was used to determine the number of viable cells in culture based on quantitation of the ATP present, as an indicator of metabolically active cells. The assay was performed in the following steps: First, the testing compounds were dissolved in DMSO to make a stock solution. The stocks (10 mM) were then diluted to varying concentrations: […], 0.305 and 0.102 μM. An aliquot of 0.2 μl of diluted compounds were added to the 384 well assay plate. Second, added 40 μl of cell suspension with 800 Ba/F3-TEL-SYK cells into each well and incubated the plate at 37° C., 5% CO2 for 72 hr. Then, added 20 μl Cell Titer-Glo Reagent into each well of the cell culture plate. Mixed the contents for 2 min on an orbital shaker to lyse cells, and rest the plate at room temperature for 30 min. Finally, luminescence values were obtained using an Envision 2104 plate reader (PerkinElmer) and calculated the average data and Standard Deviation (SD) of DMSO and Reference (GS-9973, 1 μM) as high control and low control. To determine the IC50 value, fit the data using non-linear regression equation.

[2] = target: SYK kinase (Homo sapiens, UniProt P43405); experiment: SYK kinase assay (HTRF KinEASE-TK); type: biochemical; conditions: class symbols, read-out: Syk inhibition IC50
Protocol: A homogeneous time-resolved fluorescence (HTRF) assay was performed to assess the potential inhibitory effect of compounds on SYK kinase. The HTRF KinEASE-TK kit (Cisbio) was used. During the step, kinase will phosphorylate the substrate, and the resulting fluorescence signal is proportional to the phosphorylation level. The assay was performed in the following steps: First, the testing compounds were diluted 1:3 in succession in DMSO. The 1× kinase buffer contained 1 volume of 5× enzymatic buffer with 4 volumes of distilled water, 5 mM MgCl2, 1 mM MnCl2, and 1 mM DTT. The assays were assembled in 384 well plates (784075, Greiner) where 10 nl of compound solutions were added into each well, and the plates were centrifuged at 1000 g for 1 min. Then, 5 μl of 2×SYK in 1× kinase buffer were added to each well. The plates were centrifuged at 1000 g for 30 s and then incubated at room temperature for 10 min. The reaction was initiated by adding […] of premixed 2×TK-substrate-biotin and ATP mixture in 1× kinase buffer to the assay plates. The plates were centrifuged at 1000 g for 30 s and incubated at room temperature for 30 min. Phosphorylation was detected by adding 5 μl of 4×Sa-XL 665 in HTRF detection buffer into each well of the assay plates. The plates were centrifuged plates at 1000 g for 30 sec, and then incubated at room temperature for 1 h. Finally, the plates were read on an Envision 2104 plate reader (PerkinElmer) and the fluorescence signal was measured at 615 nm (Cryptate) and 665 nm (XL665).
A ratio (665/615 nm) was calculated for each well. The inhibition ratio was calculated as follow: […]
IC50 was calculated by fitting % Inhibition values and log of compound concentrations to nonlinear regression (dose response−variable slope) with GraphPad 6.0.

| Structure (SMILES) | GI50 [1] [nM] | IC50 [2] [nM] |
| --- | --- | --- |
| COc1cc(Nc2nc(-c3ccc4cn[nH]c4c3)cn3ncnc23)ccc1N1CCN(C)CC1 [I12, 6-(1H-indazol-6-yl)-N-(3-methoxy-4-(4-methylpiperazin-1-yl)phenyl)-[1,2,4]triazolo[1,5-a]pyrazin-8-amine] | ≤ 50 | ≤ 50 |
| CCN1CCN(c2ccc(Nc3nc(-c4ccc5cn[nH]c5c4)cn4ncnc34)cc2OC)CC1 [I16, N-(4-(4-ethylpiperazin-1-yl)-3-methoxyphenyl)-6-(1H-indazol-6-yl)-[1,2,4]triazolo[1,5-a]pyrazin-8-amine] | ≤ 50 | ≤ 50 |
| CCOc1cc(Nc2nc(-c3ccc4cn[nH]c4c3)cn3ncnc23)ccc1N1CCOCC1 [I73, N-(3-ethoxy-4-morpholinophenyl)-6-(1H-indazol-6-yl)-[1,2,4]triazolo[1,5-a]pyrazin-8-amine] | 50 to 500 | ≤ 50 |
| COc1cc(Nc2nc(-c3cncc(N)n3)cn3ncnc23)ccc1N1CCN(C2COC2)CC1 [I56, 6-(6-aminopyrazin-2-yl)-N-(3-methoxy-4-(4-(oxetan-3-yl)piperazin-1-yl)phenyl)-[1,2,4]triazolo[1,5-a]pyrazin-8-amine] | 500 to 5000 | 50 to 500 |
| COc1cc(Nc2nc(-c3ccc4cn[nH]c4c3)cn3ncnc23)ccc1N1CCN(C(C)C)CC1 [I17, 6-(1H-indazol-6-yl)-N-(4-(4-isopropylpiperazin-1-yl)-3-methoxyphenyl)-[1,2,4]triazolo[1,5-a]pyrazin-8-amine] | 50 to 500 | ≤ 50 |
| COc1ccc(Nc2nc(-c3ccc4cn[nH]c4c3)cn3ncnc23)cc1OC [I3, N-(3,4-dimethoxyphenyl)-6-(1H-indazol-6-yl)-[1,2,4]triazolo[1,5-a]pyrazin-8-amine] | ≤ 50 | ≤ 50 |
| O=C(O)c1ccc(NC(=O)c2cccc(-c3cn4ncnc4c(Nc4ccc(N5CCOCC5)cc4)n3)c2)cc1 [I7, 4-(3-(8-((4-morpholinophenyl)amino)-[1,2,4]triazolo[1,5-a]pyrazin-6-yl)benzamido)benzoic acid] | > 5000 | ≤ 50 |
| COc1cc(Nc2nc(-c3ccc4cn[nH]c4c3)cn3ncnc23)ccc1N1CCS(=O)(=O)CC1 [I24, 4-(4-((6-(1H-indazol-6-yl)-[1,2,4]triazolo[1,5-a]pyrazin-8-yl)amino)-2-methoxyphenyl)thiomorpholine 1,1-dioxide] | ≤ 50 | ≤ 50 |
| Nc1cncc(-c2cn3ncnc3c(Nc3ccc(N4CCN(C5COC5)CC4)cc3)n2)n1 [I55, 6-(6-aminopyrazin-2-yl)-N-(4-(4-(oxetan-3-yl)piperazin-1-yl)phenyl)-[1,2,4]triazolo[1,5-a]pyrazin-8-amine] | 500 to 5000 | ≤ 50 |
| COCCN1CCN(c2ccc(Nc3nc(-c4ccc5cn[nH]c5c4)cn4ncnc34)cc2OC)CC1 [I18, 6-(1H-indazol-6-yl)-N-(3-methoxy-4-(4-(2-methoxyethyl)piperazin-1-yl)phenyl)-[1,2,4]triazolo[1,5-a]pyrazin-8-amine] | ≤ 50 | ≤ 50 |
| FC(F)Oc1cc(Nc2nc(-c3ccc4cc[nH]c4c3)cn3ncnc23)ccc1N1CC2CC1CN2C1COC1 (centres unmarked) [I78, N-(3-(difluoromethoxy)-4-(5-(oxetan-3-yl)-2,5-diazabicyclo[2.2.1]heptan-2-yl)phenyl)-6-(1H-indol-6-yl)-[1,2,4]triazolo[1,5-a]pyrazin-8-amine] | 500 to 5000 | ≤ 50 |
| CC(C)Oc1cc(Nc2nc(-c3ccc4cn[nH]c4c3)cn3ncnc23)ccc1N1CCOCC1 [I75, 6-(1H-indazol-6-yl)-N-(3-isopropoxy-4-morpholinophenyl)-[1,2,4]triazolo[1,5-a]pyrazin-8-amine] | 500 to 5000 | 50 to 500 |
| FC(F)Oc1cc(Nc2nc(-c3ccc4cn[nH]c4c3)cn3ncnc23)ccc1N1CCOCC1 [I21, N-(3-(difluoromethoxy)-4-morpholinophenyl)-6-(1H-indazol-6-yl)-[1,2,4]triazolo[1,5-a]pyrazin-8-amine] | 50 to 500 | ≤ 50 |

Continued, values first:

| GI50 [1] [nM] | IC50 [2] [nM] | Structure (SMILES) |
| --- | --- | --- |
| 50 to 500 | ≤ 50 | CC1(O)CCN(c2ccc(Nc3nc(-c4ccc5cn[nH]c5c4)cn4ncnc34)cc2)CC1 [I23, 1-(4-((6-(1H-indazol-6-yl)-[1,2,4]triazolo[1,5-a]pyrazin-8-yl)amino)phenyl)-4-methylpiperidin-4-ol] |
| 50 to 500 | ≤ 50 | COc1cc(Nc2nc(-c3ccc4cc[nH]c4c3)cn3ncnc23)ccc1N1CC2CC1CN2C1COC1 (centres unmarked) [I76, 6-(1H-indol-6-yl)-N-(3-methoxy-4-(5-(oxetan-3-yl)-2,5-diazabicyclo[2.2.1]heptan-2-yl)phenyl)-[1,2,4]triazolo[1,5-a]pyrazin-8-amine] |
| 50 to 500 | ≤ 50 | COc1cc(Nc2nc(-c3ccc4c(c3)N=CC4)cn3ncnc23)ccc1N1CC2(COC2)C1 [I62, 6-(3H-indol-6-yl)-N-(3-methoxy-4-(2-oxa-6-azaspiro[3.3]heptan-6-yl)phenyl)-[1,2,4]triazolo[1,5-a]pyrazin-8-amine] |
| 50 to 500 | 50 to 500 | c1nc2c(Nc3ccc(N4CC5(COC5)C4)cc3)nc(-c3ccc4cn[nH]c4c3)cn2n1 [I59, N-(4-(2-oxa-6-azaspiro[3.3]heptan-6-yl)phenyl)-6-(1H-indazol-6-yl)-[1,2,4]triazolo[1,5-a]pyrazin-8-amine] |
| 50 to 500 | ≤ 50 | O=S1(=O)CCN(c2ccc(Nc3nc(-c4ccc5cn[nH]c5c4)cn4ncnc34)cc2)CC1 [I25, 4-(4-((6-(1H-indazol-6-yl)-[1,2,4]triazolo[1,5-a]pyrazin-8-yl)amino)phenyl)thiomorpholine 1,1-dioxide] |
| 50 to 500 | ≤ 50 | CCOc1cc(Nc2nc(-c3ccc4cc[nH]c4c3)cn3ncnc23)ccc1N1CC2CC1CN2C1COC1 (centres unmarked) [I79, N-(3-ethoxy-4-(5-(oxetan-3-yl)-2,5-diazabicyclo[2.2.1]heptan-2-yl)phenyl)-6-(1H-indol-6-yl)-[1,2,4]triazolo[1,5-a]pyrazin-8-amine] |
| 50 to 500 | 50 to 500 | COc1cc(Nc2nc(-c3ccc4cn[nH]c4c3)cn3ncnc23)ccc1N1CC2(COC2)C1 [I60, 6-(1H-indazol-6-yl)-N-(3-methoxy-4-(2-oxa-6-azaspiro[3.3]heptan-6-yl)phenyl)-[1,2,4]triazolo[1,5-a]pyrazin-8-amine] |
| 50 to 500 | ≤ 50 | O=C1COc2cc(-c3cn4ncnc4c(Nc4ccc(N5CCOCC5)cc4)n3)ccc2N1 [I29, 7-(8-((4-morpholinophenyl)amino)-[1,2,4]triazolo[1,5-a]pyrazin-6-yl)-2H-benzo[b][1,4]oxazin-3(4H)-one] |
| 50 to 500 | ≤ 50 | c1nc2c(Nc3ccc(N4CC5(COC5)C4)cc3)nc(-c3ccc4cc[nH]c4c3)cn2n1 [I61, N-(4-(2-oxa-6-azaspiro[3.3]heptan-6-yl)phenyl)-6-(1H-indol-6-yl)-[1,2,4]triazolo[1,5-a]pyrazin-8-amine] |
| 500 to 5000 | 50 to 500 | CC(C)Oc1cc(Nc2nc(-c3ccc4cc[nH]c4c3)cn3ncnc23)ccc1N1CC2CC1CN2C1COC1 (centres unmarked) [I81, 6-(1H-indol-6-yl)-N-(3-isopropoxy-4-(5-(oxetan-3-yl)-2,5-diazabicyclo[2.2.1]heptan-2-yl)phenyl)-[1,2,4]triazolo[1,5-a]pyrazin-8-amine] |
| 500 to 5000 | ≤ 50 | c1nc2c(Nc3ccc(N4CC5CC4CN5C4COC4)cc3)nc(-c3ccc4cc[nH]c4c3)cn2n1 (centres unmarked) [I82, 6-(1H-indol-6-yl)-N-(4-(5-(oxetan-3-yl)-2,5-diazabicyclo[2.2.1]heptan-2-yl)phenyl)-[1,2,4]triazolo[1,5-a]pyrazin-8-amine] |
| 500 to 5000 | 50 to 500 | CC(C)N1C[C@@H]2C[C@@H]1CN2c1ccc(Nc2nc(-c3ccc4[nH]ccc4c3)cn3ncnc23)cc1 [I70, 6-(1H-indol-5-yl)-N-(4-((1S,4R)-5-isopropyl-2,5-diazabicyclo[2.2.1]heptan-2-yl)phenyl)-[1,2,4]triazolo[1,5-a]pyrazin-8-amine] |
